Data published in article PMC8175350, “Drug repurposing screens identify chemical entities for the development of COVID-19 interventions” (Nature Communications, 2021).
pEC50: −log10 of the molar value. Like-named read-outs stand apart in the source and are kept apart here.

Legend:
[1] = tested on: SARS-CoV-2; test: microbe, parasite or virus in culture; type: cell-based; details: for pEC50: read-out: Calu-3 CoV-2 EC50 GeoMean
[2] = in vitro; details: human
[3] = Uninfected HeLa-ACE2 24 h live/dead cytotoxicity counter screen; type: cell-based, human; details: human, uninfected HeLa-ACE2 cells; read-out: HeLa-ACE2 uninfected cytotoxicity CC50 GeoMean
[4] = tested on: HeLa-ACE2 cells; test: cells; details: Homo sapiens; for pEC50: HeLa-ACE2, read-out: HeLa-ACE2 cell count EC50 GeoMean
[5] = tested on: SARS-CoV-2; test: microbe, parasite or virus in culture; type: cell-based; details: for pEC50: read-out: HeLa-ACE2 TOA CoV-2 EC50 GeoMean
[6] = tested on: HeLa-ACE2 cells; test: Total cell count in the HeLa-ACE2 TOA (time of addition) assay; type: cell-based, human; details: Homo sapiens, HeLa-ACE2; read-out: HeLa-ACE2 TOA cell count EC50 GeoMean
[7] = tested on: Calu-3 cells; test: cells; details: Homo sapiens, Calu-3, read-out: Calu-3 cell count EC50 GeoMean
[8] = tested on: HepG2; test: HepG2 72 h CellTiter-Glo cytotoxicity; details: 72 h
[9] = tested on: SARS-CoV-2; test: microbe, parasite or virus in culture; type: cell-based; details: for Emax: Severe acute respiratory syndrome coronavirus 2, HeLa-ACE2, 24 h, read-out: HeLa-ACE2 CoV-2 Sinf Average; for pEC50: Severe acute respiratory syndrome coronavirus 2, HeLa-ACE2, detail column, read-out: HeLa-ACE2 CoV-2 EC50 GeoMean
[10] = HEK293T 72 h CellTiter-Glo cytotoxicity; details: human, HEK293T cells
[11] = tested on: HEK293T; details: human, 72 h
[12] = tested on: HeLa-ACE2 cells; test: Uninfected HeLa-ACE2 24 h live/dead cytotoxicity counter screen; type: cell-based, human; details: curve plateau at infinite concentration
[13] = in vitro; details: human, Calu-3 uninfected cytotoxicity CC50 GeoMean
[14] = tested on: HeLa-ACE2 cells; test: Total cell count in the HeLa-ACE2 TOA assay; type: cell-based; details: Homo sapiens, HeLa-ACE2; read-out: HeLa-ACE2 TOA cell count EC50 GeoMean
From the text: Supplement 41467_2021_23328_MOESM3_ESM.xlsx, sheet "Table S1" | column: HeLa-ACE2 TOA cell count

[15] = tested on: HepG2; details: human, 72 h
[16] = tested on: SARS-CoV-2; type: cell-based; details: combination with remdesivir, synergy score δ
[17] = tested on: Calu-3 cells
[18] = in vitro; details: human; remark: listed apart in the source

With CC[C@H]1OC(=O)[C@H](C)[C@@H](O[C@H]2C[C@@](C)(OC)[C@@H](O)[C@H](C)O2)[C@H](C)[C@@H](O[C@@H]2O[C@H](C)C[C@H](N(C)C)[C@H]2O)[C@](C)(O)C[C@@H](C)CN(C)[C@H](C)[C@@H](O)[C@]1(C)O [Azithromycin] the pEC50 ([1]; Severe acute respiratory syndrome coronavirus 2, Calu-3) was less than 5.01, the CC50 [2] was greater than 39.8 µM and the CC50 at 24 h [3] was greater than 39.8 µM. For the same compound, the pEC50 [4] was less than 5.02, the “TOA:HeLa-ACE2 EC50 Ratio” value [5] was 14.747 and the pEC50 ([5]; Severe acute respiratory syndrome coronavirus 2, HeLa-ACE2, detail column) was less than 5.02. For the same compound, the pEC50 [6] was less than 5.02, the pEC50 [7] was less than 5.01 and the “HepG2 72-hour cytotoxicity Sinf Average” value [8] was -100%. For the same compound, the Emax [9] was 100%, the pEC50 [9] was 6.19 and the “HeLa-ACE2 SI” value ([9]; selectivity index, uninfected HeLa-ACE2 CC50 / SARS-CoV-2 EC50) was greater than 61.26. The CC50 at 72 h [10] was greater than 39.8 µM.

Work on COC(=O)C1=C(C)NC(C)=C(C(=O)OCCN2CCN(C(c3ccccc3)c3ccccc3)CC2)C1c1cccc([N+](=O)[O-])c1 (stereo not drawn) [Manidipine (Manyper)] yielded an Emax ([1]; Severe acute respiratory syndrome coronavirus 2, Calu-3, 48 h, curve plateau at infinite concentration, read-out: Calu-3 CoV-2 Sinf Average) of 80%, a pEC50 ([1]; Severe acute respiratory syndrome coronavirus 2, Calu-3, detail column) of less than 5.26 and a CC50 at 72 h [2] of 30.7 µM. For the same compound, the “HEK293T 72-hour cytotoxicty Sinf Average” value [11] was -100%, the “HeLa-ACE2 uninfected cytotoxicity Sinf Average” value [12] was -96% and the CC50 at 24 h [3] was greater than 17.1 µM. It also gave a CC50 at 48 h [13] greater than 29.9 µM, a pEC50 [14] of less than 5.02 and an Emax ([4]; HeLa-ACE2, 24 h, read-out: HeLa-ACE2 cell count Sinf Average) of 100%. The pEC50 [4] was less than 5.02, the Emax ([5]; Severe acute respiratory syndrome coronavirus 2, HeLa-ACE2, 10 h, curve plateau at infinite concentration, read-out: HeLa-ACE2 TOA CoV-2 Sinf Average) was 100% and the pEC50 ([5]; Severe acute respiratory syndrome coronavirus 2, HeLa-ACE2) was 5.11. For the same compound, the “HepG2 72-hour cytotoxicity Sinf Average” value [15] was -100%, the “HeLa-ACE2 synergy score with remdesivi [δ]” value [16] was -4.727 and the pEC50 [7] was less than 5.00. For the same compound, the “uninfected Calu-3 CC50” value [17] was > 29.89 ×÷ 1.002 (n=5) μM, the “Calu-3 uninfected cytotoxicity Sinf Average” value ([17]; human, 48 h) was -100% and the CC50 at 72 h [18] was 30.8 µM. It also gave an Emax ([9]; curve plateau at infinite concentration) of 100% and a pEC50 [9] of less than 5.16.
